Tests used:
Format in all cases: in vivo
[1] = system: velvetleaf (Abutilon theophrasti, ABT); experiment: Pre-emerge test, velvetleaf; settings: 250 g ai/ha, 14 days after application, rating scale 0-100 (0 no damage, 100 complete death)
Outline: (§1)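 Sandy loam soil mix, 10 cm pots, sowing 1 d before treatment; spray volume 187 l/ha, rates 8–1000 g ai/ha in acetone; 0–100 visual rating at 14 d.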

[2] = system: cocklebur (Xanthium strumariunt, XAS); experiment: Post-emerge test, cocklebur; settings: 250 g ai/ha, 14 days after application, rating scale 0-100 (0 no damage, 100 complete death)
Outline: (§2)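 A greenhouse foliar screen: the compound was applied over the top of 2-3 leaf plants by a flat-fan track sprayer at 8 to 1000 g ai/ha. It was delivered in acetone at 187 l/ha, with 0.25% v/v non-ionic surfactant added for leaf wetting. Injury was judged 14 days on, from 0 (none) to 100 (complete kill).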

[3] = system: sicklepod (Cassia obtusifolia, CAO); experiment: Post-emerge test, sicklepod; settings: 250 g ai/ha, 14 days after application, rating scale 0-100 (0 no damage, 100 complete death)
Outline: as §2

[4] = system: ivyleaf morningglory (Ipomoea hederacea, IPH); experiment: Post-emerge test, ivyleaf morningglory; settings: 250 g ai/ha, 14 days after application, rating scale 0-100 (0 no damage, 100 complete death)
Outline: as §2

[5] = system: common ragweed (Ambrosia artemisiifolia L., AML); experiment: Pre-emerge test, common ragweed; settings: 250 g ai/ha, 14 days after application, rating scale 0-100 (0 no damage, 100 complete death)
Outline: as §1

[6] = system: lambsquarters (Chenopodium album, CHA); experiment: Pre-emerge test, lambsquarters; settings: 250 g ai/ha, 14 days after application, rating scale 0-100 (0 no damage, 100 complete death)
Outline: as §1

[7] = system: johnsongrass (Sorghum halepense, SOH); experiment: Post-emerge test, johnsongrass; settings: 250 g ai/ha, 14 days after application, rating scale 0-100 (0 no damage, 100 complete death)
Outline: as §2

[8] = system: lambsquarters (Chenopodium album, CHA); experiment: Post-emerge test, lambsquarters; settings: 250 g ai/ha, 14 days after application, rating scale 0-100 (0 no damage, 100 complete death)
Outline: as §2

[9] = system: field corn (Zea mays L., var. Dekalb 535, CORN); experiment: Post-emerge test, crop damage field corn; settings: post-emerge, 250 g ai/ha, 14 days after application, rating scale 0-100 (0 no damage, 100 complete death)
Outline: as §2

[10] = system: soybean (Glycine max L., var. Pella 86, SOY); experiment: Pre-emerge test, crop damage soybean; settings: pre-emerge, 250 g ai/ha, 14 days after application, rating scale 0-100 (0 no damage, 100 complete death)
Outline: (§3)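 Seeds planted 1 day pre-application in sandy loam soil mix; acetone solutions sprayed at 8 to 1000 g ai/ha (187 l/ha, flat fan nozzle, track sprayer). 14 d later, visual damage scored on a 0–100 scale.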

[11] = system: johnsongrass (Sorghum halepense, SOH); experiment: Pre-emerge test, johnsongrass; settings: 250 g ai/ha, 14 days after application, rating scale 0-100 (0 no damage, 100 complete death)
Outline: as §1

[12] = system: common ragweed (Ambrosia artemisiifolia L., AML); experiment: Post-emerge test, common ragweed; settings: 250 g ai/ha, 14 days after application, rating scale 0-100 (0 no damage, 100 complete death)
Outline: as §2

[13] = system: wheat (Triticum aestivum); experiment: Pre-emerge test, crop damage wheat; settings: pre-emerge, 250 g ai/ha, 14 days after application, rating scale 0-100 (0 no damage, 100 complete death)
Outline: as §3

[14] = system: cocklebur (Xanthium strumariunt, XAS); experiment: Pre-emerge test, cocklebur; settings: 250 g ai/ha, 14 days after application, rating scale 0-100 (0 no damage, 100 complete death)
Outline: as §1

[15] = system: barnyardgrass (Echinachloa crus-galli, ECC); experiment: Post-emerge test, barnyardgrass; settings: 250 g ai/ha, 14 days after application, rating scale 0-100 (0 no damage, 100 complete death)
Outline: as §2

[16] = system: green foxtail (Setaria viridis, SEV); experiment: Pre-emerge test, green foxtail; settings: 250 g ai/ha, 14 days after application, rating scale 0-100 (0 no damage, 100 complete death)
Outline: as §1

[17] = system: soybean (Glycine max L., var. Pella 86, SOY); experiment: Post-emerge test, crop damage soybean; settings: post-emerge, 250 g ai/ha, 14 days after application, rating scale 0-100 (0 no damage, 100 complete death)
Outline: as §2

[18] = system: sicklepod (Cassia obtusifolia, CAO); experiment: Pre-emerge test, sicklepod; settings: 250 g ai/ha, 14 days after application, rating scale 0-100 (0 no damage, 100 complete death)
Outline: as §1

[19] = system: upland rice (Oryza sp., var.Tebonnet, RICE); experiment: Pre-emerge test, crop damage upland rice; settings: pre-emerge, 250 g ai/ha, 14 days after application, rating scale 0-100 (0 no damage, 100 complete death)
Outline: as §3

[20] = system: wheat (Triticum aestivum); experiment: Post-emerge test, crop damage wheat; settings: post-emerge, 250 g ai/ha, 14 days after application, rating scale 0-100 (0 no damage, 100 complete death)
Outline: as §2

[21] = system: redroot pigweed (Amaranthus retroflexus, AMR); experiment: Pre-emerge test, redroot pigweed; settings: 250 g ai/ha, 14 days after application, rating scale 0-100 (0 no damage, 100 complete death)
Outline: as §1

[22] = system: redroot pigweed (Amaranthus retroflexus, AMR); experiment: Post-emerge test, redroot pigweed; settings: 250 g ai/ha, 14 days after application, rating scale 0-100 (0 no damage, 100 complete death)
Outline: as §2

[23] = system: ivyleaf morningglory (Ipomoea hederacea, IPH); experiment: Pre-emerge test, ivyleaf morningglory; settings: 250 g ai/ha, 14 days after application, rating scale 0-100 (0 no damage, 100 complete death)
Outline: as §1

[24] = system: barnyardgrass (Echinachloa crus-galli, ECC); experiment: Pre-emerge test, barnyardgrass; settings: 250 g ai/ha, 14 days after application, rating scale 0-100 (0 no damage, 100 complete death)
Outline: as §1

[25] = system: large crabgrass (Digitaria sanguinalis, DIS); experiment: Post-emerge test, large crabgrass; settings: 250 g ai/ha, 14 days after application, rating scale 0-100 (0 no damage, 100 complete death)
Outline: as §2

[26] = system: upland rice (Oryza sp., var.Tebonnet, RICE); experiment: Post-emerge test, crop damage upland rice; settings: post-emerge, 250 g ai/ha, 14 days after application, rating scale 0-100 (0 no damage, 100 complete death)
Outline: as §2

[27] = system: large crabgrass (Digitaria sanguinalis, DIS); experiment: Pre-emerge test, large crabgrass; settings: 250 g ai/ha, 14 days after application, rating scale 0-100 (0 no damage, 100 complete death)
Outline: as §1

[28] = system: field corn (Zea mays L., var. Dekalb 535, CORN); experiment: Pre-emerge test, crop damage field corn; settings: pre-emerge, 250 g ai/ha, 14 days after application, rating scale 0-100 (0 no damage, 100 complete death)
Outline: as §3

[29] = system: velvetleaf (Abutilon theophrasti, ABT); experiment: Post-emerge test, velvetleaf; settings: 250 g ai/ha, 14 days after application, rating scale 0-100 (0 no damage, 100 complete death)
Outline: as §2

[30] = system: green foxtail (Setaria viridis, SEV); experiment: Post-emerge test, green foxtail; settings: 250 g ai/ha, 14 days after application, rating scale 0-100 (0 no damage, 100 complete death)
Outline: as §2

Cn1nc(-c2c(F)cc3c4c2NC(=O)CN4C(=O)C(C)(C)O3)c(Cl)c1OC(F)F [1-59]
Pre-emerge Herbicidal Activity ABT (phytotoxicity rating) [1]: 100 | Post-emerge Herbicidal Activity XAS (phytotoxicity rating) [2]: 100 | Post-emerge Herbicidal Activity CAO (phytotoxicity rating) [3]: 70 | Post-emerge Herbicidal Activity IPH (phytotoxicity rating) [4]: 100 | Pre-emerge Herbicidal Activity AML (phytotoxicity rating) [5]: 100 | Pre-emerge Herbicidal Activity CHA (phytotoxicity rating) [6]: 100 | Post-emerge Herbicidal Activity SOH (phytotoxicity rating) [7]: 65 | Post-emerge Herbicidal Activity CHA (phytotoxicity rating) [8]: 100 | Post-emerge crop damage CORN (phytotoxicity rating) [9]: 10 | Pre-emerge crop damage SOY (phytotoxicity rating) [10]: 15 | Pre-emerge Herbicidal Activity SOH (phytotoxicity rating) [11]: 100 | Post-emerge Herbicidal Activity AML (phytotoxicity rating) [12]: 80 | Pre-emerge crop damage WHEAT (phytotoxicity rating) [13]: 45 | Pre-emerge Herbicidal Activity XAS (phytotoxicity rating) [14]: 60 | Post-emerge Herbicidal Activity ECC (phytotoxicity rating) [15]: 99 | Pre-emerge Herbicidal Activity SEV (phytotoxicity rating) [16]: 100 | Post-emerge crop damage SOY (phytotoxicity rating) [17]: 45 | Pre-emerge Herbicidal Activity CAO (phytotoxicity rating) [18]: 99 | Pre-emerge crop damage RICE (phytotoxicity rating) [19]: 50 | Post-emerge crop damage WHEAT (phytotoxicity rating) [20]: 35 | Pre-emerge Herbicidal Activity AMR (phytotoxicity rating) [21]: 100 | Post-emerge Herbicidal Activity AMR (phytotoxicity rating) [22]: 100 | Pre-emerge Herbicidal Activity IPH (phytotoxicity rating) [23]: 85 | Pre-emerge Herbicidal Activity ECC (phytotoxicity rating) [24]: 99 | Post-emerge Herbicidal Activity DIS (phytotoxicity rating) [25]: 99 | Post-emerge crop damage RICE (phytotoxicity rating) [26]: 55 | Pre-emerge Herbicidal Activity DIS (phytotoxicity rating) [27]: 99 | Pre-emerge crop damage CORN (phytotoxicity rating) [28]: 40 | Post-emerge Herbicidal Activity ABT (phytotoxicity rating) [29]: 100 | Post-emerge Herbicidal Activity SEV (phytotoxicity rating) [30]: 99
